In patent US7312236B2, “Substituted (4-aminocyclohexen-1-yl)phenyl and (4-aminocyclohexen-1-yl)pyridinyl compounds as 5-HT1F agonists” (Eli Lilly and Company, priority 2004, dated 2007):

What was measured:
[1] = tested on: rabbit saphenous vein; assay: Rabbit saphenous vein contraction; settings: Oryctolagus cuniculus
Experimental: Bend the tips of two 30-gauge stainless steel hypodermic needles into an L-shape and slip them into the lumen of the polyethylene tubing. Gently push vein tissue from the cannula onto the needles. Separate the needles and attach the lower needle with thread to a stationary glass rod and the upper needle with thread to a force transducer (Statham UC-3). Mount the tissues in organ baths containing 10 mL of modified Krebs' solution. Maintain tissue bath solutions at 37° C. and […] […] Apply an initial optimum resting force of 4 grams to the vein tissue. Record isometric contractions as changes in grams of force on a Beckman Dynograph with Statham UC-3 transducers and microscale accessory attachments. […] Flush the bath, allow the tissue to re-equilibrate under a 4 gram force, add test compound and record the force of contraction. Add additional compound to achieve the next concentration in a range of compound concentrations to generate cumulative agonist concentration-response curves for each test compound. Tissues can be used to generate up to two agonist concentration-response curves. […] Two important parameters can be measured with this vasoconstriction assay, saphenous vein contraction (EC50) and maximal contraction as a percentage of the maximal KCl response (%max KCl).

[2] = tested on: dural protein extravasation; assay: Dural protein extravasation assay (trigeminal ganglion stimulation); set-up: species or system rats or guinea pigs; settings: in vivo
Experimental: The inhibition of dural protein extravasation is a functional assay for the neuronal mechanism of migraine. A compound's ability to inhibit dural protein extravasation can be tested as described in the following assay.
Anesthetize Harlan Sprague-Dawley rats (225-325 g) or guinea pigs from Charles River Laboratories (225-325 g) with sodium pentobarbital (intraperitoneal injection, 65 mg/kg or 45 mg/kg, respectively). For each animal, place the animal in a stereotaxic frame (David Kopf Instruments) with the incisor bar set at −3.5 mm for rats or −4.0 mm for guinea pigs. […]
Quantify the amount of Evans Blue dye in each sample using a fluorescence microscope (Zeiss) equipped with a grating monochronomator, a spectrophotometer, a computer-driven motorized stage, and an interface to a personal computer. For each dural membrane sample, measure fluorescence at 25 points (500 μm steps covering a 2.5×2.5 mm square area) using an excitation wavelength of approximately 535 nm and measuring the emission intensity at a wavelength of 600 nm. Determined the mean and standard deviation of these measurements. […]

- EC50 [1]: 660 nM
SMILES: CNS(=O)(=O)Cc1ccc2[nH]cc(CCN(C)C)c2c1 [sumatriptan]
- extravasation inhibition ID50 [2]: 2.6e-08 mmol/kg
